These results are taken from PubChem BioAssay AID602132 (Sanford-Burnham Center for Chemical Genomics, 2011).

SMILES strings stand for the structures. Calls of active or inactive are those of the source. No rule for the calls is given here. Where only a bound is given, the exact number is not on record here.

For this experiment, the target named is glucose-6-phosphate dehydrogenase-6-phosphogluconolactonase [Plasmodium falciparum 3D7]. As to the kind of experiment: PfG6PD enzyme inhibitors, orthogonal readout, SAR follow-up, orthogonal assay for PfG6PD antimalarial inhibitor project, biochemical, direct NADPH end-point detection, set 2 (AID 602132). Particulars: recombinant PfG6PD.
For the molecule `CCN1CCCC1CNC(=O)c1ccc2c(c1)NC(=O)/C(=C/c1ccc(F)cc1)S2` (stereo unspecified), the IC50 was > 80 µM (inactive). As for `CCN1CCCC1CNC(=O)c1ccc2c(c1)NC(=O)/C(=C/c1c(F)cccc1F)S2` (stereo unspecified), the IC50 is > 80 µM (inactive).

`NCCNC(=O)c1ccc2c(c1)NC(=O)c1ccccc1S2`: the IC50 is > 80 µM (inactive). Consider `CCCN1CCCC1CNC(=O)c1ccc2c(c1)NC(=O)/C(=C/c1ccccc1F)S2` (stereo unspecified), for which the IC50 was > 80 µM (inactive). As to `CCN1CCC[C@@H]1CNC(=O)c1ccc2c(c1)NC(=O)c1ccccc1S2`, the IC50 is 6.69 µM.

In the case of `O=C1Nc2cc(C(=O)NCC3CCCN3)ccc2S/C1=C\c1ccccc1F` (stereo unspecified), the IC50 is > 80 µM (inactive). Regarding `O=C(NCCN1CCCCC1)c1ccc2c(c1)NC(=O)c1ccccc1S2`, the IC50 is 25.4 µM. Consider `CCN1CCC[C@H]1CNC(=O)c1ccc2c(c1)NC(=O)c1ccccc1S2`, for which the IC50 was 64.8 µM. Consider `CN(C)c1ccccc1CNC(=O)c1ccc2c(c1)NC(=O)/C(=C/c1ccccc1F)S2`, for which the IC50 is > 80 µM (inactive). For `CCN1CCCC1CNC(=O)c1ccc2c(c1)NC(=O)/C(=C/c1ccc3ccccc3c1)S2` (stereo unspecified), the IC50 was > 80 µM (inactive). For the molecule `O=C(NCCNC1CCCCC1)c1ccc2c(c1)NC(=O)c1ccccc1S2`, the IC50 was > 80 µM (inactive). For `NC1CCN(C(=O)c2ccc3c(c2)NC(=O)/C(=C/c2ccccc2F)S3)C1` (stereo unspecified) the value was > 80 µM (inactive); for `NC1CCN(C(=O)c2ccc3c(c2)NC(=O)c2ccccc2S3)C1` (stereo unspecified), > 80 µM (inactive). Consider `CCN(CC)CCCC(C)Nc1ccnc2cc(Cl)ccc12` (stereo unspecified), for which the IC50 was > 80 µM (inactive).

Take `CCC(C)N1CCCC1CNC(=O)c1ccc2c(c1)NC(=O)c1ccccc1S2` (stereo unspecified): the IC50 is > 80 µM (inactive). For the molecule `O=C(NCCN1CCOCC1)c1ccc2c(c1)NC(=O)c1ccccc1S2`, the IC50 was > 80 µM (inactive). On to `CCN1CCCC1CNC(=O)c1ccc2c(c1)NC(=O)/C(=C/c1cccc(F)c1)S2` (stereo unspecified), for which the IC50 is > 80 µM (inactive). As to `CCN1CCCC1CNC(=O)c1ccc2c(c1)NC(=O)C(Cc1ccccc1F)S2` (stereo unspecified), the IC50 is > 80 µM (inactive). Regarding `CC(C)(C)OC(=O)N1CCCC1CNC(=O)c1ccc2c(c1)NC(=O)/C(=C/c1ccccc1F)S2` (stereo unspecified), the IC50 is > 80 µM (inactive). With `CCN1CCCC1CNC(=O)c1ccc2c(c1)NC(=O)/C(=C/c1cccc(F)c1F)S2` (stereo unspecified) the figure was > 80 µM (inactive); with `CCC(C)N(CCNC(=O)c1ccc2c(c1)NC(=O)c1ccccc1S2)C1CCCCC1` (stereo unspecified), 25 µM.
